Laboratory results taken from US7414041B2 (Trustees Of Tufts College, priority 1991, dated 2008).
Read-outs that look alike come from different tables or passages of the source.

What was measured:
[1] = tested on: E. coli ML308; test: MIC of tetracycline susceptible strains, C5 esters; assay type: cell-based; settings: E. coli ML308, alone
[2] = tested on: E. coli D1-299 (Tet A); assay type: cell-based; settings: for MIC/MLC chart symbol: Chart 6A, doxy = number in box (line above), listed as H analog alone;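 on all read-outs here: E. coli at roughly 5×10^5 cells/ml in L broth, analog and doxycycline alone or mixed in two-fold dilutions from 50 to under 1 µg/ml, 18 h at 37 °C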
[3] = tested on: E. faecalis 211 (Tet M); test: MIC/MLC chart, analog with and without doxycycline; assay type: cell-based; settings: for MIC/MLC chart symbol: Chart 6D, doxy = number in box (line above), listed as H analog alone;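 on all read-outs here: broth checkerboard of two-fold drug dilutions, alone and mixed with doxycycline, bacteria near 5×10^5 cells/ml, 18 h incubation at 37 °C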
[4] = tested on: S. aureus 4250 (Tet K); test: MIC/MLC chart, analog with and without doxycycline; assay type: cell-based; settings: for MIC/MLC chart symbol: Chart 6B, doxy = number in box (line above), listed as H analog alone
[5] = tested on: E. faecalis ATCC 9790; test: MIC of tetracycline susceptible strains, C5 esters; assay type: cell-based; settings: E. faecalis ATCC 9790, alone
[6] = tested on: E. faecalis 158 (Tet L); test: MIC/MLC chart, analog with and without doxycycline; assay type: cell-based; settings: for MIC/MLC chart symbol: Chart 6C, doxy = number in box (line above), listed as H analog alone
[7] = tested on: S. aureus 450; test: MIC of tetracycline susceptible strains, C5 esters; assay type: cell-based; settings: S. aureus 450, alone
[8] = target: T1, TET proteins responsible for tetracycline efflux (Class B tetracycline resistance determinant, strain D1-209) (Escherichia coli, UniProt P02980); test: biochemical; parameters: species or system E. coli
T1 construct: Everted vesicles, to which the TET proteins responsible for tetracycline efflux are attached; endogenous in cells; host or cells: E. coli strain D1-209 (everted membrane vesicles)
T1 sequence (P02980 whole entry): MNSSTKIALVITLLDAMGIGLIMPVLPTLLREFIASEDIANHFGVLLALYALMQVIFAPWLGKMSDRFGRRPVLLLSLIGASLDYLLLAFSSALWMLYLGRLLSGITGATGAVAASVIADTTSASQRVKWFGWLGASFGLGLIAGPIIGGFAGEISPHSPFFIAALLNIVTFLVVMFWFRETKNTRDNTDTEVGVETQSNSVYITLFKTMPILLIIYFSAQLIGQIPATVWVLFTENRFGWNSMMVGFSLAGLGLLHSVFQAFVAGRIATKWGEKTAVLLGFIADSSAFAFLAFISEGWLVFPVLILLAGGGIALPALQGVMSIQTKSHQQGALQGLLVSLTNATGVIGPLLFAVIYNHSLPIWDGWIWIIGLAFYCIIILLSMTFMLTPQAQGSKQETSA

13-propylthio-5-proprionate-6-deoxy-tetracycline [Cmpd 8]
20 µg/mL: MIC [1]
.3 µg/mL: MIC [7]
2.5 µg/mL: MIC [5]
+: growth / no growth (MIC) / killing (MLC) symbol ([2]; analog 1.56 + doxy 1.55 μg/ml) | growth / no growth (MIC) / killing (MLC) symbol ([2]; analog 1.56 + doxy 3.1 μg/ml) | growth / no growth (MIC) / killing (MLC) symbol ([2]; analog 1.56 + doxy 6.2 μg/ml) | growth / no growth (MIC) / killing (MLC) symbol ([2]; analog 3.12 + doxy 1.53 μg/ml) | growth / no growth (MIC) / killing (MLC) symbol ([2]; analog 3.12 + doxy 3.05 μg/ml) | growth / no growth (MIC) / killing (MLC) symbol ([2]; analog 3.12 + doxy 6.1 μg/ml) | growth / no growth (MIC) / killing (MLC) symbol ([2]; analog 6.25 + doxy 5.9 μg/ml) | growth / no growth (MIC) / killing (MLC) symbol ([2]; analog 6.25 + doxy 3.0. μg/ml) | growth / no growth (MIC) / killing (MLC) symbol ([2]; analog 6.25 + doxy […]) | growth / no growth (MIC) / killing (MLC) symbol ([2]; analog 12.5 + doxy 2.8 μg/ml) | growth / no growth (MIC) / killing (MLC) symbol ([2]; analog 12.5 + doxy 5.5 μg/ml) | growth / no growth (MIC) / killing (MLC) symbol ([2]; analog 12.5 + doxy […]) | growth / no growth (MIC) / killing (MLC) symbol ([2]; analog 25 + doxy 2.4 μg/ml) | growth / no growth (MIC) / killing (MLC) symbol ([2]; analog 25 + doxy 4.7 μg/ml) | growth / no growth (MIC) / killing (MLC) symbol ([2]; analog 25 + doxy […]) | growth / no growth (MIC) / killing (MLC) symbol ([2]; analog 50 + doxy 1.56 μg/ml) | growth / no growth (MIC) / killing (MLC) symbol ([2]; analog 50 + doxy 3.12 μg/ml) | growth / no growth (MIC) / killing (MLC) symbol ([2]; analog 50 + doxy .78 μg/ml) | growth / no growth (MIC) / killing (MLC) symbol ([2]; analog .195 + doxy 1.56 μg/ml) | growth / no growth (MIC) / killing (MLC) symbol ([2]; analog .195 + doxy 3.12 μg/ml) | growth / no growth (MIC) / killing (MLC) symbol ([2]; analog .195 + doxy 6.25 μg/ml) | growth / no growth (MIC) / killing (MLC) symbol ([2]; analog .195 + doxy 12.5 μg/ml) | growth / no growth (MIC) / killing (MLC) symbol ([2]; analog .39 + doxy 1.56 μg/ml) | growth / no growth (MIC) / killing (MLC) symbol ([2]; analog .39 + doxy 3.12 μg/ml) | growth / no growth (MIC) / killing (MLC) symbol ([2]; analog .39 + doxy 6.25 μg/ml) | growth / no growth (MIC) / killing (MLC) symbol ([2]; analog .39 + doxy 12.5 μg/ml) | growth / no growth (MIC) / killing (MLC) symbol ([2]; analog .78 + doxy 1.56 μg/ml) | growth / no growth (MIC) / killing (MLC) symbol ([2]; analog .78 + doxy 3.12 μg/ml) | growth / no growth (MIC) / killing (MLC) symbol ([2]; analog .78 + doxy 6.23 μg/ml) | growth / no growth (MIC) / killing (MLC) symbol ([2]; analog .78 + doxy 12.4 μg/ml) | growth / no growth (MIC) / killing (MLC) symbol ([2]; analog alone 1.56 μg/ml) | growth / no growth (MIC) / killing (MLC) symbol ([2]; analog alone 3.12 μg/ml) | growth / no growth (MIC) / killing (MLC) symbol ([2]; analog alone 6.25 μg/ml) | growth / no growth (MIC) / killing (MLC) symbol ([2]; analog alone 12.5 μg/ml) | growth / no growth (MIC) / killing (MLC) symbol ([2]; analog alone 25.0 μg/ml) | growth / no growth (MIC) / killing (MLC) symbol ([2]; analog alone 50.00 μg/ml) | growth / no growth (MIC) / killing (MLC) symbol ([2]; analog alone .195 μg/ml) | growth / no growth (MIC) / killing (MLC) symbol ([2]; analog alone .39 μg/ml) | growth / no growth (MIC) / killing (MLC) symbol ([2]; analog alone .78 μg/ml) | growth / no growth (MIC) / killing (MLC) symbol ([3]; analog 1.56 + doxy 1.55 μg/ml) | growth / no growth (MIC) / killing (MLC) symbol ([3]; analog 1.56 + doxy 3.1 μg/ml) | growth / no growth (MIC) / killing (MLC) symbol ([3]; analog 1.56 + doxy 6.2 μg/ml) | growth / no growth (MIC) / killing (MLC) symbol ([3]; analog .195 + doxy 1.56 μg/ml) | growth / no growth (MIC) / killing (MLC) symbol ([3]; analog .195 + doxy 3.12 μg/ml) | growth / no growth (MIC) / killing (MLC) symbol ([3]; analog .195 + doxy 6.25 μg/ml) | growth / no growth (MIC) / killing (MLC) symbol ([3]; analog .195 + doxy 12.5 μg/ml) | growth / no growth (MIC) / killing (MLC) symbol ([3]; analog .39 + doxy 1.56 μg/ml) | growth / no growth (MIC) / killing (MLC) symbol ([3]; analog .39 + doxy 3.12 μg/ml) | growth / no growth (MIC) / killing (MLC) symbol ([3]; analog .39 + doxy 6.25 μg/ml) | growth / no growth (MIC) / killing (MLC) symbol ([3]; analog .39 + doxy 12.5 μg/ml) | growth / no growth (MIC) / killing (MLC) symbol ([3]; analog .78 + doxy 1.56 μg/ml) | growth / no growth (MIC) / killing (MLC) symbol ([3]; analog .78 + doxy 3.12 μg/ml) | growth / no growth (MIC) / killing (MLC) symbol ([3]; analog .78 + doxy 6.23 μg/ml) | growth / no growth (MIC) / killing (MLC) symbol ([3]; analog alone 1.56 μg/ml) | growth / no growth (MIC) / killing (MLC) symbol ([3]; analog alone .195 μg/ml) | growth / no growth (MIC) / killing (MLC) symbol ([3]; analog alone .39 μg/ml) | growth / no growth (MIC) / killing (MLC) symbol ([3]; analog alone .78 μg/ml) | growth / no growth (MIC) / killing (MLC) symbol ([4]; analog .195 + doxy 1.56 μg/ml) | growth / no growth (MIC) / killing (MLC) symbol ([4]; analog alone .195 μg/ml) | growth / no growth (MIC) / killing (MLC) symbol ([6]; analog .195 + doxy 1.56 μg/ml) | growth / no growth (MIC) / killing (MLC) symbol ([6]; analog .195 + doxy 3.12 μg/ml) | growth / no growth (MIC) / killing (MLC) symbol ([6]; analog alone .195 μg/ml) | growth / no growth (MIC) / killing (MLC) symbol ([6]; analog alone .39 μg/ml) | growth / no growth (MIC) / killing (MLC) symbol ([6]; analog alone .78 μg/ml)
1400 nM: IC50 ([8]; uptake at 2.5 minutes, about 4 μM 3H-tetracycline, read-out: IC50)
◯: growth / no growth (MIC) / killing (MLC) symbol ([2]; analog 1.56 + doxy 12.3 μg/ml) | growth / no growth (MIC) / killing (MLC) symbol ([3]; analog 3.12 + doxy 1.53 μg/ml) | growth / no growth (MIC) / killing (MLC) symbol ([3]; analog 3.12 + doxy 3.05 μg/ml) | growth / no growth (MIC) / killing (MLC) symbol ([3]; analog alone 3.12 μg/ml) | growth / no growth (MIC) / killing (MLC) symbol ([4]; analog .195 + doxy 3.12 μg/ml) | growth / no growth (MIC) / killing (MLC) symbol ([6]; analog .39 + doxy 1.56 μg/ml) | growth / no growth (MIC) / killing (MLC) symbol ([6]; analog .39 + doxy 3.12 μg/ml)

C=C1c2cccc(O)c2C(=O)C2=C(O)C3(O)C(=O)C(C(N)=O)=C(O)C(N(C)C)C3C(OC(=O)CC)C12 (stereo not shown) [Cmpd 2, 5 proprionate methacycline]
0.8 µg/mL: MIC ([5]; Enterococcus faecalis, ATCC9790, read-out: MIC)
0.78 µg/mL: MIC in combination ([4]; with 6.23 μg/ml doxycycline (Chart 6B))
↓ and +: MIC/MLC chart symbol ([3]; analog 6.25 μg/ml) | MIC/MLC chart symbol ([4]; analog .195 μg/ml) | MIC/MLC chart symbol ([4]; analog .39 μg/ml)
1.3 µg/mL: MIC ([7]; Staphylococcus aureus, read-out: MIC)
+: MIC/MLC chart symbol ([2]; analog 1.56 μg/ml) | MIC/MLC chart symbol ([2]; analog 3.12 μg/ml) | MIC/MLC chart symbol ([2]; analog 6.25 μg/ml) | MIC/MLC chart symbol ([2]; analog 12.5 μg/ml) | MIC/MLC chart symbol ([2]; analog 25 μg/ml) | MIC/MLC chart symbol ([2]; analog .195 μg/ml) | MIC/MLC chart symbol ([2]; analog .39 μg/ml) | MIC/MLC chart symbol ([2]; analog .78 μg/ml) | MIC/MLC chart symbol ([3]; analog 3.12 μg/ml) | MIC/MLC chart symbol ([3]; analog .195 μg/ml) | MIC/MLC chart symbol ([3]; analog .39 μg/ml) | MIC/MLC chart symbol ([3]; analog .78 μg/ml)
↓ and ◯ and +: MIC/MLC chart symbol ([4]; analog 1.56 μg/ml)
1.56 µg/mL: MIC in combination ([4]; with 1.55 μg/ml doxycycline (Chart 6B))
◯ and +: MIC/MLC chart symbol ([3]; analog 1.56 μg/ml) | MIC/MLC chart symbol ([4]; analog .78 μg/ml) | MIC/MLC chart symbol ([6]; analog .195 μg/ml) | MIC/MLC chart symbol ([6]; analog .39 μg/ml) | MIC/MLC chart symbol ([6]; analog .78 μg/ml)
↓ and ◯: MIC/MLC chart symbol ([6]; analog 1.56 μg/ml)
10 µg/mL: MIC ([1]; Escherichia coli, read-out: MIC)
◯: MIC/MLC chart symbol ([2]; analog 3.12 μg/ml, listed as 5-proprionate methacycline) | MIC/MLC chart symbol ([2]; analog 6.25 μg/ml, listed as 5-proprionate methacycline) | MIC/MLC chart symbol ([2]; analog 25 μg/ml, listed as 5-proprionate methacycline)
200 nM: IC50 [8]
